pIC50, pKi: −log10 of the molar value.
Experiments:
[1] = target: human Adenosine A2b receptor (Homo sapiens (Human), UniProt P29275); test: Adenosine receptor TR-FRET binding assay (A2b); settings: TR-FRET, inhibition of binding of 30 nM CA200645, CHO cell membranes
Procedure, shortened: (§1)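 Competition binding measured by TR-FRET between terbium-labelled receptors (CHO membranes, human) and fluorescent XAC, CA200645, used at 30 nM for A2b and 100 nM elsewhere. Room temperature, 2 h. Reported as Ki (Cheng–Prusoff).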

[2] = target: human Adenosine A2a receptor (Homo sapiens (Human), UniProt P29274); test: Adenosine receptor TR-FRET binding assay (A2a); settings: inhibition of binding of 100 nM CA200645, CHO cell membranes
Procedure, shortened: as §1

[3] = test system: CD8+T cells in human whole blood; test: Measurement of pCREB in CD8+T cells in human whole blood; format: cell-based; settings: 3 μM NECA, rolipram
Procedure, shortened: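 Heparinised human whole blood pre-incubated 20 min at 37 °C with serially diluted A2a antagonists plus rolipram, then stimulated 60 min with 3 μM NECA (final). After fixation and red-cell lysis, white cells were permeabilized and stained for phospho-CREB and CD8; pCREB in CD8+ T cells measured by flow cytometry.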

[4] = test system: immature monocyte-derived dendritic cells (MoDC); test: MoDC pCREB assay; format: cell-based, human; settings: Homo sapiens, Dendritic cell; pCREB in immature MoDC, 1 μM NECA, rolipram
Method: Monocytes are isolated from human whole blood using CD14 microbeads (Miltenyi Biotec 130-050-201) and differentiated to immature monocyte-derived dendritic cells (MoDC) by culture for 5 days in Mo-DC Differentiation Medium (Miltenyi Biotec 130-094-812). MoDCs are seeded into fresh medium into U bottomed 96 well culture plates and pre-incubated at 37° C. with serial dilutions of A2A/B antagonists for 15 min. At the same time the cells are co-incubated with the phosphodiesterase inhibitor rolipram (final concentration of 20 µM) to amplify the subsequent pCREB response. Adenosine receptor agonist NECA is then added at 1 μM final concentration, leading to an increase in CREB phosphorylation. Following a 45 min incubation at 37° C., the cells are fixed, permeabilized and stained with directly conjugated fluorescent antibodies to phospho-CREB (Alexa Fluor 488), CD209 (PerCP-Cy5.5) and CD86 (APC). Samples are analysed by FACS to measure fluorescence in corresponding channels, and also forward and Side scatter. The population of CD209+/CD86− low cells corresponding to immature dendritic cells is gated for analysis of pCREB levels.
Approximately 5% of the analysed cells are positive for detection of pCREB in the absence of agonist stimulation, representing the background signalling of all pathways upstream of CREB. Following NECA stimulation this is increased to ˜80% pCREB+ve, and this increase is essentially fully reversible by A2B or dual A2A/B antagonists.
IC50 is represented as the point of inflection of a sigmoidal curve

[5] = target: human Adenosine A1 receptor (Homo sapiens (Human), UniProt P30542); test: Adenosine receptor TR-FRET binding assay (A1); settings: inhibition of binding of 100 nM CA200645, CHO cell membranes
Procedure, shortened: as §1

human PBMCs = test: CD3/CD28 stimulated IL-2 release NECA reversal assay in human PBMCs; format: cell-based; settings: PBMC, 1 uM NECA, 24 hours, IL-2 in culture supernatant
Procedure, shortened: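 PBMCs from citrated healthy-donor blood plated at 50,000 cells/well on 1 ug/ml CD3 antibody with 1 ug/ml CD28 antibody, 1 uM NECA and 0.003-10 μM antagonist (final), 24 h at 37° C. Supernatant IL-2 measured by MSD immunoassay; % inhibition set against no-NECA control wells as 100%.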

[6] = target: human Adenosine A3 receptor (Homo sapiens (Human), UniProt P0DMS8); test: Adenosine receptor TR-FRET binding assay (A3); settings: inhibition of binding of 100 nM CA200645, CHO cell membranes
Procedure, shortened: as §1

Chain of human Adenosine A2a receptor (P29274 whole entry): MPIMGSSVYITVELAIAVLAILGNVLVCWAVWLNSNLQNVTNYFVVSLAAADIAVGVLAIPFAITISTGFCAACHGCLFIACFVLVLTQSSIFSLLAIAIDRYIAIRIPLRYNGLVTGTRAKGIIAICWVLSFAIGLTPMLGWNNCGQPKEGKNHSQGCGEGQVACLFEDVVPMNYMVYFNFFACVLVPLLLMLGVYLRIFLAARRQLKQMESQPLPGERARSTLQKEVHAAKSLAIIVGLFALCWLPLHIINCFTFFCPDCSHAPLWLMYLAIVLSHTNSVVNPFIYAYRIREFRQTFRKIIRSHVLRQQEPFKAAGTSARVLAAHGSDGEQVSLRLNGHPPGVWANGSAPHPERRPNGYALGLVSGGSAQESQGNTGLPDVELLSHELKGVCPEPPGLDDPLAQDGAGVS
Chain of human Adenosine A1 receptor (P30542 whole entry): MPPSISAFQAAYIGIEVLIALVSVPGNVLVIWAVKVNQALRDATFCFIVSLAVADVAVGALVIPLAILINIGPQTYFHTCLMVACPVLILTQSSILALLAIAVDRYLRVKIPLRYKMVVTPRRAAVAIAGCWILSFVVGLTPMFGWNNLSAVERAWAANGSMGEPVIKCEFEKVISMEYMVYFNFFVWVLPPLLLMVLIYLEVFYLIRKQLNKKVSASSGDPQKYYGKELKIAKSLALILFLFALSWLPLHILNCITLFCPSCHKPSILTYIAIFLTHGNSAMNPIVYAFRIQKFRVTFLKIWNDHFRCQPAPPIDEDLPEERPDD
Chain of human Adenosine A3 receptor (P0DMS8 whole entry): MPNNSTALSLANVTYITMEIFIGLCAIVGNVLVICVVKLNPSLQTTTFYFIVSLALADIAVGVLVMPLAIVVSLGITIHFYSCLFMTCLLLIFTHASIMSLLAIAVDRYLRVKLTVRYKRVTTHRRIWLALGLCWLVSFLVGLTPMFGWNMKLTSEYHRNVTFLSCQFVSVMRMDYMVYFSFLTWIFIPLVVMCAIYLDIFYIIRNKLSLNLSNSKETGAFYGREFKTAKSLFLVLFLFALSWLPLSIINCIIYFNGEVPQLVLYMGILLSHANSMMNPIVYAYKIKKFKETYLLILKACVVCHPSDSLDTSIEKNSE
Chain of human Adenosine A2b receptor (P29275 whole entry): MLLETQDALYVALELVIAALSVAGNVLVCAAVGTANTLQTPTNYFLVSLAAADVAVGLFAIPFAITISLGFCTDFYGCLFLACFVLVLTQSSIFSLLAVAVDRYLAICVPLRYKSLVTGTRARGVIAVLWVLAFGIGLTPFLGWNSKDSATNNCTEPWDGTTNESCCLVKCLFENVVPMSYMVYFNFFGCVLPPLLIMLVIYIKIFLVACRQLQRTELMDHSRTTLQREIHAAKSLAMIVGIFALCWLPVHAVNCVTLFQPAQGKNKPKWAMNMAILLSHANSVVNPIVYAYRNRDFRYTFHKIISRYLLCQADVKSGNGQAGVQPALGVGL

Row | Structure (SMILES) | pKi [1] | pKi [2] | pIC50 [3] | pIC50 [4] | pKi [5] | pIC50 (human PBMCs) | pKi [6]
1 | Cc1cc(-c2sc(NC(=O)N3CCN(C)CC3)nc2-c2cccc(C#N)c2)cc(Cl)n1 [Example 3.6] | 8.82 | 9.19 | 6.00 | 7.29 | 7.06 | 8.12 | 6.32
2 | Cc1cc(-c2sc(NC(=O)N3CCC(C)(C#N)CC3)nc2-c2cccc(C#N)c2)cc(Cl)n1 [Example 3.8] | 9.05 | 10.05 | 6.12 | 7.96 | 6.94 | 9.00 | 6.27
3 | Cc1cc(-c2sc(NC(=O)N3CCC(C#N)CC3)nc2-c2cccc(C#N)c2)cc(C)n1 [Example 4.1, 4-Cyano-N-[4-(3-cyanophenyl)-5-(2,6-dimethyl-4-pyridyl)thiazol-2-yl]piperidine-1-carboxamide] | 9.22 | 9.96 | 8.00 | 7.82 | 7.96 | 9.52 | 6.84
4 | Cc1cc(-c2sc(NC(=O)N3CCN(C4COC4)CC3)nc2-c2cccc(C#N)c2)cc(C)n1 [Example 4.4, N-[4-(3-Cyanophenyl)-5-(2,6-dimethyl-4-pyridyl)thiazol-2-yl]-4-(oxetan-3-yl)piperazine-1-carboxamide] | 8.35 | 9.07 | 6.77 | 7.02 | 6.58 | 8.21 | 6.25
5 | Cc1cc(-c2sc(NC(=O)N3CC[C@H](C#N)C3)nc2-c2cccc(C#N)c2)cc(C)n1 [Example 4.8, (3S)-3-Cyano-N-[4-(3-cyanophenyl)-5-(2,6-dimethyl-4-pyridyl)thiazol-2-yl]pyrrolidine-1-carboxamide] | 8.82 | 9.43 | 7.40 | 7.92 | 7.77 | 8.96 | 6.74
6 | Cc1cc(-c2sc(NC(=O)N3CC(C)(O)C3)nc2-c2cccc(C#N)c2)cc(C)n1 [Example 4.9, N-[4-(3-Cyanophenyl)-5-(2,6-dimethyl-4-pyridyl)thiazol-2-yl]-3-hydroxy-3-methyl-azetidine-1-carboxamide] | 8.82 | 9.85 | 7.30 | 7.59 | 8.05 | 8.49 | 6.88
7 | Cc1cc(-c2sc(NC(=O)N3CC4(COC4)C3)nc2-c2cccc(C#N)c2)cc(C)n1 [Example 4.12, N-[4-(3-Cyanophenyl)-5-(2,6-dimethyl-4-pyridyl)thiazol-2-yl]-2-oxa-6-azaspiro[3.3]heptane-6-carboxamide] | 8.96 | 9.59 | 7.30 | 7.74 | 7.51 | 8.70 | 6.41
8 | COC1(C#N)CCN(C(=O)Nc2nc(-c3cccc(C#N)c3)c(-c3cc(C)nc(C)c3)s2)CC1 [Example 4.22, 4-Cyano-N-[4-(3-cyanophenyl)-5-(2,6-dimethyl-4-pyridyl)thiazol-2-yl]-4-methoxy-piperidine-1-carboxamide] | 9.05 | 10.00 | 6.96 | 7.96 | 7.46 | 8.96 | 6.78
9 | Cc1cc(-c2sc(NC(=O)N3CCC(C#N)(CO)CC3)nc2-c2cccc(C#N)c2)cc(C)n1 [Example 4.23, 4-Cyano-N-[4-(3-cyanophenyl)-5-(2,6-dimethyl-4-pyridyl)thiazol-2-yl]-4-(hydroxymethyl)piperidine-1-carboxamide] | 9.15 | 9.70 | 7.52 | 7.70 | 7.27 | 9.22 | 6.57
10 | Cc1cc(-c2sc(NC(=O)N3CC[S+]([O-])CC3)nc2-c2cccc(C#N)c2)cc(C)n1 [Example 4.24, N-[4-(3-Cyanophenyl)-5-(2,6-dimethyl-4-pyridyl)thiazol-2-yl]-1-oxo-1,4-thiazinane-4-carboxamide] | 8.62 | 9.74 | 7.10 | 7.10 | 7.82 | 8.55 | 6.42
11 | Cc1cc(-c2sc(NC(=O)N3CCC4(CC3)C(=O)N(C)C(=O)N4C)nc2-c2cccc(C#N)c2)cc(C)n1 [Example 4.28, N-[4-(3-Cyanophenyl)-5-(2,6-dimethyl-4-pyridyl)thiazol-2-yl]-1,3-dimethyl-2,4-dioxo-1,3,8-triazaspiro[4.5]decane-8-carboxamide] | 8.62 | 9.32 | 6.17 | 8.00 | 6.87 | 8.33 | 7.11
12 | Cc1cc(-c2sc(NC(=O)N3CCC(C#N)(C#N)CC3)nc2-c2cccc(C#N)c2)cc(C)n1 [Example 4.32, 4,4-Dicyano-N-[4-(3-cyanophenyl)-5-(2,6-dimethyl-4-pyridyl)thiazol-2-yl]piperidine-1-carboxamide] | 8.96 | 9.82 | 7.22 | 7.85 | 7.59 | 9.15 | 6.34
13 | Cc1cc(-c2sc(NC(=O)N3CCC(C)(C#N)CC3)nc2-c2cccc(C#N)c2)cc(C)n1 [Example 6, 4-Cyano-N-[4-(3-cyanophenyl)-5-(2,6-dimethyl-4-pyridyl)thiazol-2-yl]-4-methyl-piperidine-1-carboxamide] | 8.96 | 9.92 | 7.15 | 8.05 | 7.43 | 9.22 | 6.55
14 | Cc1cc(-c2sc(NC(=O)N3CCC4(CC3)NC(=O)N(C)C4=O)nc2-c2cccc(C#N)c2)cc(C)n1 [Example 6.6, N-[4-(3-Cyanophenyl)-5-(2,6-dimethyl-4-pyridyl)thiazol-2-yl]-3-methyl-2,4-dioxo-1,3,8-triazaspiro[4.5]decane-8-carboxamide] | 8.89 | 8.84 | 6.22 | 7.62 | 7.09 | 8.09 | 6.63
15 | Cc1cc(-c2sc(NC(=O)N3CC(C)(C#N)C3)nc2-c2cccc(C#N)c2)cc(C)n1 [Example 6.7, 3-Cyano-N-[4-(3-cyanophenyl)-5-(2,6-dimethyl-4-pyridyl)thiazol-2-yl]-3-methyl-azetidine-1-carboxamide] | 9.15 | 9.96 | 7.70 | 8.15 | 7.85 | 9.10 | 6.55
16 | Cc1cc(-c2sc(NC(=O)N3CCC4(CC3)CNC(=O)O4)nc2-c2cccc(C#N)c2)cc(C)n1 [Example 6.56, N-[4-(3-Cyanophenyl)-5-(2,6-dimethyl-4-pyridyl)thiazol-2-yl]-2-oxo-1-oxa-3,8-diazaspiro[4.5]decane-8-carboxamide] |  |  | 7.15 | 8.15 |  | 8.46 | 
17 | Cc1cc(-c2sc(NC(=O)N3CC(C)(C#N)C3)nc2-c2cccc(C#N)c2)c(F)c(C)n1 [Example 6.68, 3-Cyano-N-[4-(3-cyanophenyl)-5-(3-fluoro-2,6-dimethyl-4-pyridyl)thiazol-2-yl]-3-methyl-azetidine-1-carboxamide] |  |  | 7.30 | 8.52 |  | 8.51 | 
18 | Cc1cc(-c2sc(NC(=O)N3CCC4(CC3)CNC4=O)nc2-c2cccc(C#N)c2)c(F)c(C)n1 [Example 6.69, N-[4-(3-Cyanophenyl)-5-(3-fluoro-2,6-dimethyl-4-pyridyl)thiazol-2-yl]-3-oxo-2,7-diazaspiro[3.5]nonane-7-carboxamide] |  |  | 6.37 | 8.52 |  | 7.96 | 
19 | Cc1cc(-c2sc(NC(=O)N3CC4(COC4)C3)nc2-c2cccc(C#N)c2C)cc(C)n1 [Example 6.79, N-[4-(3-Cyano-2-methyl-phenyl)-5-(2,6-dimethyl-4-pyridyl)thiazol-2-yl]-2-oxa-6-azaspiro[3.3]heptane-6-carboxamide] |  |  | 6.46 | 7.08 |  | 7.84 | 

— patent US20230293517A1, “ANTAGONIST COMPOUNDS” (AdoRx Therapeutics Limited, priority 2020, published 2023)
